Data reported in US6673549B1, “Genes expressed in C3A liver cell cultures treated with steroids” (Incyte Corporation, priority 2000, dated 2004).
Several values for one entry are separate records, joined by “and”; a condition that tells them apart may be missing. Equal values may be shown once.

Test system: human C3A liver cells
Assay: Microarray differential gene expression in human C3A liver cell cultures treated with steroids
Format: cell-based
Text: Incyte clones represent template sequences derived from the LWESEQ GOLD assembled human sequence database (Incyte Genomics). In cases where more than one clone was available for a particular template, the 5′-most clone in the template was used on the microarray. The HUMAN GENOME GEM series 1-4 microarrays (Incyte Genomics) contain 28,626 array elements which represent 10,068 annotated clusters and 18,558 unannotated clusters. For the UNIGEM series microarrays (Incyte Genomics), Incyte clones were mapped to non-redundant Unigene clusters (Unigene database (build 46), NCBI; Shuler (1997) J Mol Med 75:694-698), and the 5′ clone with the strongest BLAST alignment (at least 90% identity and 100 bp overlap) was chosen, verified, and used in the construction of the microarray. The UNIGEM V microarray (Incyte Genomics) contains 7075 array elements which represent 4610 annotated genes and 2,184 unannotated clusters.
To construct microarrays, cDNAs were amplified from bacterial cells using primers complementary to vector sequences flanking the cDNA insert. […] Amplified cDNAs were then purified using […]-400 columns (APB). Purified cDNAs were immobilized on polymer-coated glass slides. Glass microscope slides (Corning, Corning N.Y.) were cleaned by ultrasound in 0.1% SDS and acetone, with extensive distilled water washes between and after treatments. Glass slides were etched in 4% hydrofluoric acid (VWR Scientific Products, West Chester Pa.), washed thoroughly in distilled water, and coated with 0.05% aminopropyl silane (Sigma Aldrich) in 95% ethanol. Coated slides were cured in a 110° C. oven. cDNAs were applied to the coated glass substrate using a procedure described in U.S. Pat. No. 5,807,522. One microliter of the cDNA at an average concentration of 100 ng/μl was loaded into the open capillary printing element by a high-speed robotic apparatus which then deposited about 5 nl of cDNA per slide.
Microarrays were UV-crosslinked using a […] UV-crosslinker (Stratagene), and then washed at room temperature once in 0.2% SDS and three times in distilled water. Non-specific binding sites were blocked by incubation of microarrays in 0.2% casein in phosphate buffered saline (Tropix, Bedford Mich.) for 30 minutes at 60° C. followed by washes in 0.2% SDS and distilled water as before.
In all cases, mRNA from untreated early confluent C3A cells were prepared in parallel as described below.
Cells were harvested and lysed in 1 ml of TRIZOL reagent (5×10^6 cells/ml; Life Technologies). Lysates were vortexed thoroughly, incubated at room temperature for 2-3 minutes, and extracted with 0.5 ml chloroform. The extract was mixed, incubated at room temperature for 5 minutes, and centrifuged at 15,000 rpm for 15 minutes at 4° C. The aqueous layer was collected, and an equal volume of isopropanol was added. Samples were mixed, incubated at room temperature for 10 minutes, and centrifuged at 15,000 rpm for 20 minutes at 4° C. The supernatant was removed, and the RNA pellet was washed with 1 ml of 70% ethanol, centrifuged at 15,000 rpm at 4° C., and resuspended in RNAse-free water. The concentration of the RNA was determined by measuring the optical density at 260 nm.
Poly(A) RNA was prepared using an OLIGOTEX mRNA kit (Qiagen) with the following modifications: OLIGOTEX beads were washed in tubes instead of on spin columns, resuspended in elution buffer, and then loaded onto spin columns to recover mRNA. To obtain maximum yield, the mRNA was eluted twice.
Each poly(A) RNA sample was reverse transcribed using MMLV reverse-transcriptase, 0.05 pg/μl oligo-d(T) primer (21mer), 1× first strand buffer, 0.03 units/ul RNAse inhibitor, 500 uM dATP, 500 uM dGTP, 500 uM dTTP, 40 uM dCTP, and 40 uM either dCTP-Cy3 or dCTP-Cy5 (APB).

**Q.** Which results are given for `CCCC1O[C@@H]2C[C@H]3[C@@H]4CCC5=CC(=O)C=C[C@]5(C)[C@H]4[C@@H](O)C[C@]3(C)[C@]2(C(=O)CO)O1` (some centres unmarked) [budesonide]?
**A.** Ave DE [log2] (C3A treated with steroid) (Clone ID 380006): −1.05 log2; Ave DE [log2] (C3A treated with steroid) (Clone ID 517374): 1.04 log2; Ave DE [log2] (C3A treated with steroid) (Clone ID 615776): 1.06 log2; Ave DE [log2] (C3A treated with steroid) (Clone ID 622565): 1.20 log2; Ave DE [log2] (C3A treated with steroid) (Clone ID 654246): −1.08 log2; Ave DE [log2] (C3A treated with steroid) (Clone ID 686993): 0.51 log2; Ave DE [log2] (C3A treated with steroid) (Clone ID 689296): 1.08 log2 and 1.05 log2; Ave DE [log2] (C3A treated with steroid) (Clone ID 1401312): −1.09 log2; Ave DE [log2] (C3A treated with steroid) (Clone ID 1604437): 1.18 log2; Ave DE [log2] (C3A treated with steroid) (Clone ID 1611629): 1.19 log2; Ave DE [log2] (C3A treated with steroid) (Clone ID 1662870): −0.93 log2; Ave DE [log2] (C3A treated with steroid) (Clone ID 1679595): 1.10 log2; Ave DE [log2] (C3A treated with steroid) (Clone ID 1697719): −0.81 log2; Ave DE [log2] (C3A treated with steroid) (Clone ID 1716458): 1.24 log2; Ave DE [log2] (C3A treated with steroid) (Clone ID 1798594): 0.69 log2; Ave DE [log2] (C3A treated with steroid) (Clone ID 1823946): −1.10 log2; Ave DE [log2] (C3A treated with steroid) (Clone ID 1876829): −1.13 log2; Ave DE [log2] (C3A treated with steroid) (Clone ID 1930847): −1.09 log2; Ave DE [log2] (C3A treated with steroid) (Clone ID 1973123): −1.23 log2; Ave DE [log2] (C3A treated with steroid) (Clone ID 2057513): 1.13 log2; Ave DE [log2] (C3A treated with steroid) (Clone ID 2078880): −0.80 log2; Ave DE [log2] (C3A treated with steroid) (Clone ID 2170820): 1.17 log2; Ave DE [log2] (C3A treated with steroid) (Clone ID 2173973): 1.08 log2; Ave DE [log2] (C3A treated with steroid) (Clone ID 2189061): 0.15 log2; Ave DE [log2] (C3A treated with steroid) (Clone ID 2222155): 0.58 log2; Ave DE [log2] (C3A treated with steroid) (Clone ID 2227273): 1.05 log2; Ave DE [log2] (C3A treated with steroid) (Clone ID 2287724): −1.06 log2; Ave DE [log2] (C3A treated with steroid) (Clone ID 2343836): 0.93 log2; Ave DE [log2] (C3A treated with steroid) (Clone ID 2404746): 0.42 log2; Ave DE [log2] (C3A treated with steroid) (Clone ID 2482388): 1.19 log2; Ave DE [log2] (C3A treated with steroid) (Clone ID 2660756): 1.13 log2; Ave DE [log2] (C3A treated with steroid) (Clone ID 2687356): 1.26 log2; Ave DE [log2] (C3A treated with steroid) (Clone ID 2703282): −1.01 log2; Ave DE [log2] (C3A treated with steroid) (Clone ID 3139631): −0.97 log2; Ave DE [log2] (C3A treated with steroid) (Clone ID 3229449): 0.39 log2; Ave DE [log2] (C3A treated with steroid) (Clone ID 3408804): −1.24 log2; Ave DE [log2] (C3A treated with steroid) (Clone ID 3426776): 0.61 log2; Ave DE [log2] (C3A treated with steroid) (Clone ID 3449615): 1.05 log2; Ave DE [log2] (C3A treated with steroid) (Clone ID 3497137): −0.94 log2; Ave DE [log2] (C3A treated with steroid) (Clone ID 3687607): 1.17 log2; Ave DE [log2] (C3A treated with steroid) (Clone ID 3721985): −1.10 log2; Ave DE [log2] (C3A treated with steroid) (Clone ID 3770530): −0.98 log2; Ave DE [log2] (C3A treated with steroid) (Clone ID 3973687): 1.31 log2; Ave DE [log2] (C3A treated with steroid) (Clone ID 4089291): −1.00 log2; Ave DE [log2] (C3A treated with steroid) (Clone ID 4215034): 1.20 log2; Ave DE [log2] (C3A treated with steroid) (Clone ID 4252872): 1.24 log2; Ave DE [log2] (C3A treated with steroid) (Clone ID 4403805): 1.12 log2; Ave DE [log2] (C3A treated with steroid) (Clone ID 4630674): 0.97 log2; Ave DE [log2] (C3A treated with steroid) (Clone ID 4855265): 1.14 log2; Ave DE [log2] (C3A treated with steroid) (Clone ID 4863677): 1.11 log2; Ave DE [log2] (C3A treated with steroid) (Clone ID 5038177): 0.57 log2; Ave DE [log2] (C3A treated with steroid) (Clone ID 5102951): 0.84 log2; Ave DE [log2] (C3A treated with steroid) (Clone ID 5326983): 0.94 log2

**Q.** Which “Ave DE [log2] (C3A treated with steroid)” value (Clone ID 167081) does the source give for `CC(=O)[C@H]1CC[C@H]2[C@@H]3CCC4=CC(=O)CC[C@]4(C)[C@H]3CC[C@]12C` [progesterone] here?
**A.** The value was −1.12 log2.

**Q.** What about the “Ave DE [log2] (C3A treated with steroid)” value (Clone ID 1323327) of the same compound?
**A.** The value was 0.83 log2.

**Q.** And the “Ave DE [log2] (C3A treated with steroid)” value (Clone ID 1600180)?
**A.** The value was 1.06 log2.

**Q.** And the “Ave DE [log2] (C3A treated with steroid)” value (Clone ID 1816768)?
**A.** Its value is 0.28 log2.

**Q.** And the “Ave DE [log2] (C3A treated with steroid)” value (Clone ID 2655279)?
**A.** The value was −1.03 log2.

**Q.** What about the “Ave DE [log2] (C3A treated with steroid)” value (Clone ID 2753065) of the same compound?
**A.** Its value is 0.78 log2.

**Q.** And the “Ave DE [log2] (C3A treated with steroid)” value (Clone ID 3408804)?
**A.** Its value is −1.16 log2.

**Q.** And the “Ave DE [log2] (C3A treated with steroid)” value (Clone ID 3528232)?
**A.** The value was 0.99 log2.

**Q.** What about the “Ave DE [log2] (C3A treated with steroid)” value (Clone ID 3876612) of the same compound?
**A.** The value was 0.26 log2.
